Data from patent US20220220095A1, “N-((HETEROARYL)METHYL)-1-TOSYL-1H-PYRAZOLE-3-CARBOXAMIDE DERIVATIVES AS Kv3 POTASSIUM CHANNEL ACTIVATORS FOR TREATING NEUROLOGICAL AND [sequence] DISORDERS” (H. Lundbeck A/S, priority 2019, published 2022).

Molecular target: T1, hKv3.1b (Homo sapiens, UniProt P48547)
T1 construct: expressed in transfected cells
T1 sequence (P48547 1-585 isoform P48547-2): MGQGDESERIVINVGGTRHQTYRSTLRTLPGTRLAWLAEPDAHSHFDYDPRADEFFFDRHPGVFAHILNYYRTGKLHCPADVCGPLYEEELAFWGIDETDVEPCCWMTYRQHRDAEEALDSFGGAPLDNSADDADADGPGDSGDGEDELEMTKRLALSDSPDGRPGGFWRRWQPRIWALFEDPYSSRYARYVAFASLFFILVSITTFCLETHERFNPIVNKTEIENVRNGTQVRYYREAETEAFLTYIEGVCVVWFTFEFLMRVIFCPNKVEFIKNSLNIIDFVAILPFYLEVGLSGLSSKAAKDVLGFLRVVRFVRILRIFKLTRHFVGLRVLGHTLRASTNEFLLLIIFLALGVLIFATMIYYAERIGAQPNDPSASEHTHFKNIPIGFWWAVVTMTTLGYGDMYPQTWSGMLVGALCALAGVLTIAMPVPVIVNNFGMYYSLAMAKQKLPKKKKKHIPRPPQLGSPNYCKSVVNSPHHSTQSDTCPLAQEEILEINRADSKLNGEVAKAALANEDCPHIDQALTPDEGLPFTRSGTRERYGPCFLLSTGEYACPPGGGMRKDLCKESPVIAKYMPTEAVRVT
Assay: Automated whole-cell patch-clamp (QPatch-16x) on HEK-293 cells stably expressing hKv3.1b: shift of voltage threshold for channel activation
Type: cell-based
Conditions: HEK-293 hKv3.1b; for ECdelta5mV: concentration needed to shift the threshold 5 mV, read out from fitted concentration response curve; for Max Delta threshold: maximum absolute shift of activation threshold to more hyperpolarized potentials at the tested concentrations (0.37, 1.11, 3.33, 10, 30 μM)

| Structure (SMILES) | ECdelta5mV | Max Delta threshold |
| --- | --- | --- |
| COc1ccc(S(=O)(=O)n2ccc(C(=O)NCc3cnc(C)nc3)n2)cc1 [Compound 11, 1-(4-methoxybenzene-1-sulfonyl)-N-[(2-methylpyrimidin-5-yl)methyl]-1H-pyrazole-3-carboxamide] | 2400 nM | 29 mV |
| Cc1cnc(CNC(=O)c2ccn(S(=O)(=O)c3ccc(Cl)cc3C)n2)cn1 [Compound 67, 1-(4-chloro-2-methyl-phenyl)sulfonyl-N-[(5-methylpyrazin-2-yl)methyl]pyrazole-3-carboxamide] | 1100 nM | 34 mV |
| Cc1cnc(CNC(=O)c2ccn(S(=O)(=O)c3ccccc3Cl)n2)cn1 [Compound 84, 1-(2-chlorophenyl)sulfonyl-N-[(5-methylpyrazin-2-yl)methyl]pyrazole-3-carboxamide] | 7700 nM | 12 mV |
| Cc1ccc(S(=O)(=O)n2ccc(C(=O)NCc3cn(C)nn3)n2)cc1 [Compound 46, 1-(4-methylbenzene-1-sulfonyl)-N-[(1-methyl-1H-1,2,3-triazol-4-yl)methyl]-1H-pyrazole-3-carboxamide] | 1800 nM | 22 mV |
| COc1ccc(S(=O)(=O)n2ccc(C(=O)NCc3cnc(C)cn3)n2)cc1 [Compound 5, 1-(4-methoxybenzene-1-sulfonyl)-N-[(5-methylpyrazin-2-yl)methyl]-1H-pyrazole-3-carboxamide] | 1800 nM | 26 mV |
| Cc1ccc(S(=O)(=O)n2ccc(C(=O)NCc3ncco3)n2)cc1 [Compound 45, 1-(4-methylbenzene-1-sulfonyl)-N-[(1,3-oxazol-2-yl)methyl]-1H-pyrazole-3-carboxamide] | 2800 nM | 15 mV |
